In patent US6407064B2, “Aminoalcohol derivative and medicament comprising the same” (Seikagaku Corporation, priority 1999, dated 2002):

Legend:
[1] = tested on: neurocytes; conditions: J. Neurochem. 67: 1821-1830, 1996; cited from earlier work
[2] = tested on: neurite; conditions: literature; cited from earlier work
[3] = tested on: synapse formation; conditions: WO 95/05177; cited from earlier work
[4] = Tissue distribution: concentration in plasma and skeletal muscle after oral or intravenous administration; assay type: in vivo; conditions: male, Wistar, plasma, rat
Experimental: Tissue distribution of the compound in Example 19 was compared with that of L-PDMP using 6-8 week old Wistar male rats.
As oral administration, a physiological saline containing 20 mg/ml of a test substance was administered at 100 mg/5 ml/kg, and as intravenous administration, a physiological saline containing 1.25 mg/ml of a test substance was administered to the cervical vein at 5 mg/4 ml/kg.
After the predetermined time had passed since the above administration, blood was collected from the rat cervical vein, a 3.8% sodium citrate solution was added thereto at 1/10 volume, followed by centrifugation at 3,000 rpm for 15 minutes to obtain the supernatant as a plasma sample.
Also, after the predetermined time had passed since the above administration, the skeletal muscle was collected from the femoral region of both hind legs, ice water was added thereto at 4 ml/g tissue, followed by homogenization, and the same volume of acetonitrile was added thereto, followed by vigorously stirring and centrifugation at 4000 rpm for 10 minutes to obtain the supernatant as a skeletal muscle sample.
The plasma and skeletal muscle samples were extracted by OASIS HLB solid phase extraction column (manufactured by Waters), and the concentration of the test compound in the plasma and the muscle was determined by high performance liquid chromatography (HPLC). The conditions of HPLC analysis were as follows:
Detection wavelength: 218 nm
Column: DAISO PACK SP-120-5-ODS-BP
Column temperature: 40° C.
Mobile phase: 0.1% trifluoroacetic acid solution:methanol=36:64 (for L-PDMP); 0.1% trifluoroacetic acid solution:methanol=48:52 (for the compound in Example 19)
The concentrations in the plasma and skeletal muscle of the compound in Example 19 and L-PDMP after the predetermined time has been passed since the administration of the test compounds are shown in Tables 4-6 below. The values are the mean values of at least two test samples. Specifically, Table 4, Table 5, and Table 6 show the concentrations in the plasma after the oral administration of 100 mg/kg, the concentrations in the skeletal muscle after the oral administration of 100 mg/kg, and the concentrations in the plasma after the intravenous administration of 5 mg/kg, respectively.

[5] = tested on: MAPkinase (mitogen-activated protein kinase); conditions: Biochem. Biophys. Res. Commun. 237: 595-600 (1997); cited from earlier work
[6] = tested on: ganglioside GM3, mouse B16 melanoma cells; experiment: Synthesized amount of ganglioside GM3 (HPTLC densitometry); assay type: cell-based; conditions: relative value, control regarded as 100, test compound 25 μM, 24 hours
Experimental: A liquid where the cells of mouse B16 melanoma were suspended was prepared with Dulbecco modified Eagle's medium containing 10% bovine fetal serum, inoculated into a culture flask (175 cm^2) in an amount of 0.8×10^7 cells/20 ml, and cultured in 5% CO2 incubator at 37° C. The treatment with a test compound (25 μM) was started through the exchange of three fourths of the medium 24 hours after the culture was started. Twenty-four hours after the treatment with the test compound was started, the culture mixture was treated with PBS containing 0.02% EDTA and PBS containing 0.25% trypsin successively to recover the cells.
Then, a mixed solvent of chloroform:methanol=2:1 (4 ml) was added to the cell pellet and, after the subjection to an ultrasonication for 30 minutes, the cell pellet solution was allowed to stand at room temperature for a night and the supernatant was recovered. Furthermore, a mixed solvent of chloroform:methanol=1:1 (4 ml) was added to the residual pellet after the recovery of the supernatant, and a similar operation was carried out. The resulting supernatant was combined with the first supernatant and the whole was evaporated to dryness under a nitrogen stream. To the total lipid fraction was added a 0.1 N methanolic sodium hydroxide solution (2.0 ml) and the mixture was allowed to stand at 40° C. for 2 hours. Thereafter, 1 N hydrochloric acid (0.2 ml) was added thereto and the mixture was allowed to stand for 1.5 hours.
Then, the mixture was washed with n-hexane (2 ml×2) and, after the lower layer thus washed was evaporated to dryness under a nitrogen stream, the residue was desalinated by gel filtration chromatography (Sephadex LH-20 (manufactured by Amersham Pharmacia Biotech), diameter of 10 mm, height of 120 mm) using chloroform:methanol=2:1 as the eluting solvent. […] After orcinol-sulfuric acid reagent had been sprayed on the plate, it was heated at 110° C. for 5 minutes and colored spot of ganglioside GM3 was quantitatively determined by means of densitometer (a measuring wavelength of 505 nm). […]

CCCCCCCCCC(=O)N[C@@H](CN1CCOCC1)[C@@H](O)c1ccccc1 [L-PDMP, (1S,2S)-1-phenyl-2-decanoylamino-3-morpholino-1-propanol, reference compound]
effect on ganglioside biosynthesis of neurocytes [1]: accelerate ganglioside biosynthesis of neurocytes | effect on neurite extension [2]: effect of accelerating neurite extension | effect on synapse formation [3]: effect of accelerating synapse formation | concentration at 10 min ([4]; intravenous administration of 5 mg/kg, 10 min): 1030 ng/mL | concentration at 25 min ([4]; intravenous administration of 5 mg/kg, 25 min): 620 ng/mL | concentration at 5 min ([4]; oral administration of 100 mg/kg, 5 min): 10 ng/mL | concentration at 15 min ([4]; oral administration of 100 mg/kg, 15 min): 1360 ng/mL | concentration at 30 min ([4]; oral administration of 100 mg/kg, 30 min): 2100 ng/mL | concentration at 60 min ([4]; oral administration of 100 mg/kg, 60 min): 1440 ng/mL | effect on MAPkinase [5]: activates MAPkinase for a long period of time | Glycolipid content (Test Example 3) [6]: 100.7
